Assay results reported in patent publication US20230373962A1, “SUPRAMOLECULAR MOLECULES FOR THE TREATMENT OF CANCER” (The University of Birmingham, priority 2020, published 2023).

Assay: Solubility
Assay type: physicochemical
Conditions: CB[10] alone

Structure (SMILES): O=C1N2CN3C(=O)N4CN5C(=O)N6CN7C(=O)N8CN9C(=O)N%10CN%11C(=O)N%12CN%13C(=O)N%14CN%15C(=O)N%16CN%17C(=O)N%18CN%19C(=O)N%20CN1C1C2N2CN%21C(=O)N(CN%22C(=O)N(CN%23C(=O)N(CN%24C(=O)N(CN%25C(=O)N(CN%26C(=O)N(CN%27C(=O)N(CN%28C(=O)N(CN%29C(=O)N(CN1C2=O)C%20C%19%29)C%18C%17%28)C%16C%15%27)C%14C%13%26)C%12C%11%25)C%10C9%24)C8C7%23)C6C5%22)C4C3%21 (stereo not shown) [CB[10], cucurbit[10]uril]
- solubility: insoluble
